The results in this text go back to ChEMBL document CHEMBL5329179, “Inhibitory effect of γ-ray-modified hydroxymethylated baicalins on NO production” (Bioorg Med Chem Lett, 2023).

pIC50: −log10 of the molar value. Converted amounts (≈) assume the structure as drawn. The source made the active and inactive calls. The rule behind the calls is not given here.

Holding throughout (format): functional, cell-based
Test [1] relates to RAW264.7. Put plainly: Antiinflammatory activity against LPS-stimulated mouse RAW264.7 cells assessed as reduction in NO production.
The nature of test [2]: Antiinflammatory activity against LPS-stimulated dog DH82 cells assessed as reduction in NO production. The settings on record: Canis lupus familiaris.
The test system of the next test is DH82. Put plainly: Antiinflammatory activity against LPS-stimulated dog DH82 cells assessed as reduction in iNOS mRNA expression level at 20 uM by qRT-PCR analysis. The settings on record: Canis lupus familiaris. Background: In qPCR the cycle at which signal appears reflects the starting amount.
The test system of test [3] is RAW264.7. Put plainly: Antiinflammatory activity against LPS-stimulated mouse RAW264.7 cells assessed as reduction in iNOS mRNA expression level at 20 uM by qRT-PCR analysis.
Test [4] relates to RAW264.7. Put plainly: Antiinflammatory activity against mouse RAW264.7 cells assessed as reduction in NO production compound photoirradiated using 50 kGy gamma-ray. The settings on record: RAW264.7, light or radiation study.

For `O=C(O)[C@H]1O[C@@H](Oc2cc3oc(-c4ccccc4)cc(=O)c3c(O)c2O)[C@H](O)[C@@H](O)[C@@H]1O` [BAICALIN], the pIC50 in the test with RAW264.7 [1] was 3.80; in test [2] it was less than 3.70. Also, the result in the test with DH82 and with RAW264.7 [3] was Active. In addition, in the test on RAW264.7 [4], the IC50 worked out at 35.2 µg/mL (≈ 78.9 µM).
Consider `O=C1C[C@@](CO)(c2ccccc2)Oc2cc(O[C@@H]3O[C@H](C(=O)O)[C@@H](O)[C@H](O)[C@H]3O)c(O)c(O)c21`, for which the pIC50 (in the test on RAW264.7 [1]; in test [2]) was 4.72 throughout. The result in the test on DH82 and with RAW264.7 [3] was Active.
As to `O=C(O)[C@H]1O[C@@H](Oc2cc3c(c(O)c2O)C(=O)[C@@H](CO)[C@](CO)(c2ccccc2)O3)[C@H](O)[C@@H](O)[C@@H]1O`, the pIC50 is 4.17 in the test on RAW264.7 [1] and 4.24 in test [2].
For the compound `N=C(N)NN` [PIMAGEDINE], the values for the pIC50 (in the test with RAW264.7 [1]; in test [2]) were 4.61 and 4.68, respectively.
The matching figures for `O=C1C[C@](CO)(c2ccccc2)Oc2cc3c(c(O)c21)OOC3`: less than 3.70 and less than 3.70.
As for `O=C1C[C@](CO)(c2ccccc2)Oc2cc(O[C@@H]3O[C@H](C(=O)O)[C@@H](O)[C@H](O)[C@H]3O)c(O)c(O)c21`, the pIC50 was 4.64 in the test on RAW264.7 [1] and 4.60 in test [2]. In addition, the result with DH82 and in the test on RAW264.7 [3] was Active.
For `O=c1cc(-c2ccccc2)oc2cc(O)c(O)c(O)c12` [BAICALEIN], the pIC50 with RAW264.7 [1] was 4.52; in test [2], 4.51.
Turning to `COc1c(O)cc2oc(-c3ccccc3)cc(=O)c2c1O` [OROXYLIN A], the figures for the pIC50 (in the test on RAW264.7 [1]; in test [2]) were 4.31 and 4.30, respectively.

For orientation: pIC50 means the negative decadic logarithm of the IC50, by convention in mol/L. One may read the IC50 as the concentration that inhibits the measured activity by half.
